Relative viability data for seven cell lines are collected here from the supplement of paper PMC10307832.

What all share (experiment): relative viability (nuclei count vs DMSO), 5 days (fraction); higher = more cells survive
Compound in the assay “QS11 + OSI-027”: C1CC2=C(C1)C=C(C=C2)OC3=NC(=C4C(=N3)N(C=N4)CC5=CC=C(C=C5)C6=CC=CC=C6)N[C@@H](CC7=CC=CC=C7)CO [QS11] + COc1cccc2cc(-c3nc([C@H]4CC[C@H](C(=O)O)CC4)n4ncnc(N)c34)[nH]c12 [OSI-027] (partner 0.5 µM)
In short, it runs like this:
(§1)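 Relative viability equals treated-well nuclei counts divided by vehicle-well nuclei counts. Counts came from 4× images of lung cancer cell lines grown in 1536-well plates for 5 days after pin-tool dosing on the day after seeding. Dosing used one drug alone or a fixed anchor-drug dose plus five library-drug doses (not always all listed) in √10 steps, and values are medians of duplicate plates.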

Compound in the assay “QS11 + Pemetrexed”: C1CC2=C(C1)C=C(C=C2)OC3=NC(=C4C(=N3)N(C=N4)CC5=CC=C(C=C5)C6=CC=CC=C6)N[C@@H](CC7=CC=CC=C7)CO [QS11] + Nc1nc2[nH]cc(CCc3ccc(C(=O)N[C@@H](CCC(=O)O)C(=O)O)cc3)c2c(=O)[nH]1 [Pemetrexed] (partner 0.2 µM)
In short, it runs like this:
as §1

Compound in the assay “AZ628 + Pictilisib”: CC1=C(C=C(C=C1)NC(=O)C2=CC(=CC=C2)C(C)(C)C#N)NC3=CC4=C(C=C3)N=CN(C4=O)C [AZ628] + CS(=O)(=O)N1CCN(Cc2cc3nc(-c4cccc5[nH]ncc45)nc(N4CCOCC4)c3s2)CC1 [Pictilisib] (partner 1 µM)
A digest of the protocol: as §1

Compound in the assay “QS11 + Vorinostat”: C1CC2=C(C1)C=C(C=C2)OC3=NC(=C4C(=N3)N(C=N4)CC5=CC=C(C=C5)C6=CC=CC=C6)N[C@@H](CC7=CC=CC=C7)CO [QS11] + O=C(CCCCCCC(=O)Nc1ccccc1)NO [Vorinostat] (partner 1 µM)
In short, it runs like this: as §1

As to PC-3 [JPC-3], the relative viability with QS11 + OSI-027 (first compound 0.08 µM) is 0.794; with QS11 + OSI-027 (first compound 0.253 µM) it was 0.743; with QS11 + OSI-027 (first compound 0.8 µM), 0.371; with QS11 + OSI-027 (first compound 2.53 µM), 0.718; in the assay with QS11 + OSI-027 (first compound 8 µM) it was 0.739; with QS11 + Pemetrexed (first compound 0.253 µM) it was 0.951. Further, the relative viability was determined as 1.08 with QS11 + Pemetrexed (first compound 0.8 µM); 0.935 in the assay with QS11 + Pemetrexed (first compound 2.53 µM); 1.17 with QS11 + Pemetrexed (first compound 8 µM); 0.767 with AZ628 + Pictilisib (first compound 0.08 µM); 0.835 with AZ628 + Pictilisib (first compound 0.253 µM); 0.861 with AZ628 + Pictilisib (first compound 0.8 µM). The relative viability with AZ628 + Pictilisib (first compound 2.53 µM) is 0.814; with AZ628 + Pictilisib (first compound 8 µM) it was 0.525; in the assay with QS11 + Vorinostat (first compound 0.253 µM) it was 0.722; with QS11 + Vorinostat (first compound 0.8 µM), 0.709; in the assay with QS11 + Vorinostat (first compound 2.53 µM) it was 0.72; with QS11 + Vorinostat (first compound 8 µM), 0.697.

For NCI-H441, the relative viability in the assay with QS11 + OSI-027 (first compound 0.08 µM) worked out at 0.614; in the assay with QS11 + OSI-027 (first compound 0.253 µM), 0.619; with QS11 + OSI-027 (first compound 0.8 µM), 0.76; in the assay with QS11 + OSI-027 (first compound 2.53 µM) it was 0.566; with QS11 + OSI-027 (first compound 8 µM) it was 0.548; with QS11 + Pemetrexed (first compound 0.08 µM), 0.252. Also, the relative viability in the assay with QS11 + Pemetrexed (first compound 0.253 µM) is 0.275; with QS11 + Pemetrexed (first compound 0.8 µM), 0.233; in the assay with QS11 + Pemetrexed (first compound 2.53 µM), 0.277; in the assay with QS11 + Pemetrexed (first compound 8 µM), 0.282; in the assay with AZ628 + Pictilisib (first compound 0.08 µM) it was 0.417; in the assay with AZ628 + Pictilisib (first compound 0.253 µM), 0.45. Also, the relative viability in the assay with AZ628 + Pictilisib (first compound 0.8 µM) was 0.444; in the assay with AZ628 + Pictilisib (first compound 2.53 µM), 0.403; with AZ628 + Pictilisib (first compound 8 µM), 0.283; with QS11 + Vorinostat (first compound 0.08 µM), 0.855; in the assay with QS11 + Vorinostat (first compound 0.253 µM), 0.857; in the assay with QS11 + Vorinostat (first compound 0.8 µM), 0.658. In addition, the relative viability in the assay with QS11 + Vorinostat (first compound 2.53 µM) amounted to 0.53; with QS11 + Vorinostat (first compound 8 µM), 0.717.

As for NCI-H1793, the relative viability with QS11 + OSI-027 (first compound 0.08 µM) stood at 0.248; with QS11 + OSI-027 (first compound 0.253 µM), 0.27; with QS11 + OSI-027 (first compound 0.8 µM) it was 0.277; with QS11 + OSI-027 (first compound 2.53 µM), 0.341; with QS11 + OSI-027 (first compound 8 µM), 0.332; with QS11 + Pemetrexed (first compound 0.08 µM), 0.725. The relative viability was 0.777 in the assay with QS11 + Pemetrexed (first compound 0.253 µM); 1.11 with QS11 + Pemetrexed (first compound 0.8 µM); 1.1 with QS11 + Pemetrexed (first compound 2.53 µM); 0.85 with QS11 + Pemetrexed (first compound 8 µM); 0.345 with AZ628 + Pictilisib (first compound 0.08 µM); 0.202 with AZ628 + Pictilisib (first compound 0.253 µM). Further, the relative viability is 0.32 with AZ628 + Pictilisib (first compound 0.8 µM); 0.275 with AZ628 + Pictilisib (first compound 2.53 µM); 0.196 with AZ628 + Pictilisib (first compound 8 µM); 0.734 in the assay with QS11 + Vorinostat (first compound 0.08 µM); 0.528 in the assay with QS11 + Vorinostat (first compound 0.253 µM); 0.808 with QS11 + Vorinostat (first compound 0.8 µM). The figures for the relative viability in the assay with QS11 + Vorinostat (first compound 2.53 µM) and with QS11 + Vorinostat (first compound 8 µM) were 0.88 and 0.702, respectively.

In the case of NCI-H2126, the relative viability in the assay with QS11 + OSI-027 (first compound 0.08 µM) amounted to 0.685; with QS11 + OSI-027 (first compound 0.253 µM), 0.697; in the assay with QS11 + OSI-027 (first compound 0.8 µM) it was 0.727; with QS11 + OSI-027 (first compound 2.53 µM), 0.653; in the assay with QS11 + OSI-027 (first compound 8 µM), 0.646; with QS11 + Pemetrexed (first compound 0.08 µM), 0.623. Moreover, the relative viability was found to be 0.681 with QS11 + Pemetrexed (first compound 0.253 µM); 0.604 in the assay with QS11 + Pemetrexed (first compound 0.8 µM); 0.565 with QS11 + Pemetrexed (first compound 2.53 µM); 0.59 with QS11 + Pemetrexed (first compound 8 µM); 0.533 in the assay with AZ628 + Pictilisib (first compound 0.08 µM); 0.549 with AZ628 + Pictilisib (first compound 0.253 µM). Also, the relative viability worked out at 0.537 with AZ628 + Pictilisib (first compound 0.8 µM); 0.513 with AZ628 + Pictilisib (first compound 2.53 µM); 0.457 with AZ628 + Pictilisib (first compound 8 µM); 0.801 with QS11 + Vorinostat (first compound 0.08 µM); 0.777 with QS11 + Vorinostat (first compound 0.253 µM); 0.717 with QS11 + Vorinostat (first compound 0.8 µM). The relative viability with QS11 + Vorinostat (first compound 2.53 µM) stood at 0.732; with QS11 + Vorinostat (first compound 8 µM), 0.661.

As for BEN, the relative viability with QS11 + OSI-027 (first compound 0.08 µM) was 0.304; in the assay with QS11 + OSI-027 (first compound 0.253 µM) it was 0.316; with QS11 + OSI-027 (first compound 0.8 µM) it was 0.309; with QS11 + OSI-027 (first compound 2.53 µM), 0.33; in the assay with QS11 + OSI-027 (first compound 8 µM) it was 0.3; with QS11 + Pemetrexed (first compound 0.08 µM) it was 0.638. Further, the relative viability with QS11 + Pemetrexed (first compound 0.253 µM) is 0.764; with QS11 + Pemetrexed (first compound 0.8 µM), 0.911; with QS11 + Pemetrexed (first compound 2.53 µM), 0.852; in the assay with QS11 + Pemetrexed (first compound 8 µM) it was 0.815; with AZ628 + Pictilisib (first compound 0.08 µM), 0.621; with AZ628 + Pictilisib (first compound 0.253 µM), 0.523. Moreover, the relative viability with AZ628 + Pictilisib (first compound 0.8 µM) turned out to be 0.487; with AZ628 + Pictilisib (first compound 2.53 µM) it was 0.49; with AZ628 + Pictilisib (first compound 8 µM), 0.458; with QS11 + Vorinostat (first compound 0.08 µM), 0.568; in the assay with QS11 + Vorinostat (first compound 0.253 µM), 0.528; in the assay with QS11 + Vorinostat (first compound 0.8 µM), 0.528. Besides, the relative viability with QS11 + Vorinostat (first compound 2.53 µM) stood at 0.688; in the assay with QS11 + Vorinostat (first compound 8 µM), 0.647.

As for HCC-366, the relative viability in the assay with QS11 + OSI-027 (first compound 0.08 µM) stood at 0.877; with QS11 + OSI-027 (first compound 0.253 µM), 0.749; with QS11 + OSI-027 (first compound 2.53 µM) it was 0.742; in the assay with QS11 + OSI-027 (first compound 8 µM) it was 0.257; with QS11 + Pemetrexed (first compound 0.08 µM), 0.163; in the assay with QS11 + Pemetrexed (first compound 0.253 µM), 0.139. Besides, the relative viability came to 0.175 in the assay with QS11 + Pemetrexed (first compound 2.53 µM); 0.136 in the assay with QS11 + Pemetrexed (first compound 8 µM); 0.15 in the assay with AZ628 + Pictilisib (first compound 0.08 µM); 0.18 in the assay with AZ628 + Pictilisib (first compound 0.253 µM); 0.0993 in the assay with AZ628 + Pictilisib (first compound 0.8 µM); 0.126 with AZ628 + Pictilisib (first compound 2.53 µM). The relative viability with AZ628 + Pictilisib (first compound 8 µM) amounted to 0.0787; in the assay with QS11 + Vorinostat (first compound 0.08 µM) it was 0.353; in the assay with QS11 + Vorinostat (first compound 0.253 µM), 0.283; with QS11 + Vorinostat (first compound 2.53 µM), 0.152; with QS11 + Vorinostat (first compound 8 µM), 0.161.

As to LCLC-103H, the relative viability with QS11 + OSI-027 (first compound 0.08 µM) stood at 0.434; in the assay with QS11 + OSI-027 (first compound 0.253 µM), 0.45; with QS11 + OSI-027 (first compound 0.8 µM), 0.469; with QS11 + OSI-027 (first compound 2.53 µM) it was 0.49; in the assay with QS11 + OSI-027 (first compound 8 µM) it was 0.502; in the assay with QS11 + Pemetrexed (first compound 0.08 µM), 0.454. For the same cell line, the relative viability with QS11 + Pemetrexed (first compound 0.253 µM) was 0.475; with QS11 + Pemetrexed (first compound 2.53 µM) it was 0.463; with QS11 + Pemetrexed (first compound 8 µM), 0.446; in the assay with AZ628 + Pictilisib (first compound 0.08 µM), 0.554; with AZ628 + Pictilisib (first compound 0.253 µM) it was 0.587; with AZ628 + Pictilisib (first compound 0.8 µM) it was 0.632. The relative viability with AZ628 + Pictilisib (first compound 2.53 µM) came to 0.55; in the assay with AZ628 + Pictilisib (first compound 8 µM) it was 0.583; with QS11 + Vorinostat (first compound 0.08 µM) it was 0.724; in the assay with QS11 + Vorinostat (first compound 0.253 µM), 0.783; in the assay with QS11 + Vorinostat (first compound 2.53 µM), 0.799; with QS11 + Vorinostat (first compound 8 µM), 0.734.
